Test results published in patent publication US8362203B2, “Non-natural peptides as models for the development of antibiotics” (priority 2009, dated 2013).
“Also recorded” adds a separate entry of the source. Marks after values point to notes of the source that are not given here. Strand notation (5' to 3'): a small letter for the sugar, then the base; units joined by * are phosphorothioate-linked, units joined directly phosphodiester-linked; [ ] holds rarer units or linkages, { } end groups; capitals alone tell only the bases. [m2G] = N2-methylguanosine (ribo); [5mC] = 5-methylcytosine; r = 2'-OH (RNA)

Key:
[1] = tested on: GFP translation (Escherichia coli S30 extracts); assay: Coupled in vitro transcription-translation inhibition assay (GFP fluorescence); type: biochemical; conditions: for inhibitory effect on coupled in vitro transcription-translation (in words): peptide 300 μM to 2 mM, GFP fluorescence 0 min to 2 h, 37° C.
Description: Peptides with high frequency in the screening against wild-type h31 were synthesized. The peptides (DIRTQRE (SEQ ID NO: 6), CVRPFAL (SEQ ID NO: 4), FVRPFAL (SEQ ID NO: 7), TLWDLIP (SEQ ID NO: 3) and TYLPWPA (SEQ ID NO: 2)), were synthesized and their sequences were determined from the phage display experiments. The inhibitory effects of these peptides on cellular processes were determined by in vitro coupled transcription-translation inhibition assay. The PURExpress™ in vitro protein synthesis kit # E6800S from New England Biolabs (NEB) was used for this purpose. This kit contains all of the necessary components for the transcription and translation, except for the DNA template. The amounts of reagents from the kit were added according to the NEB manual. We used a DNA template for GFP (pRSETEmGFP plasmid) at a concentration of 10 μg/ml in a 15 μl of reaction volume. Different concentrations of peptides were added, ranging from 300 μM to 2 mM. The DNA template was added only after mixing of the peptides or streptomycin so that they can bind to their target region. For the control, streptomycin was added at a final concentration of 300 μM. The reaction was incubated in 384-well, Costar, clear-well, black plates and in situ incubated at 37° C. in the fluorometer. The amount of GFP translation was monitored at different intervals of time from 0 min to 2 h by fluorescence (excitation at 487 nm, emission at 509 nm) using a Gemini XPS microplate spectrofluorometer, (Molecular Devices).
A cell-free translation assay was used to test the inhibitory effects of the peptides on protein synthesis. The pRSETEmGFP plasmid that was used as template has an EmGFP gene under control of the T7 promoter (FIG. 48). Upon transcription with T7 polymerase, EmGFP mRNA was formed and undergoes translation by ribosomes to produce the green fluorescent protein (GFP). The degree of inhibition on transcription and translation due to the presence of peptide could be determined by measuring the level of GFP fluorescence. Escherichia coli S30 extracts were used, which contained all of the necessary factors and supplements for translation. The rate of GFP translation in the presence or absence of peptide was measured at different time intervals.

[2] = UV thermal melting of helix 31 RNA hairpin constructs (van't Hoff analysis); type: physicochemical; conditions: for ΔG° 50: standard error est. 3% (±0.2 kcal/mol)
Description: Thermal melting studies. The absorbance versus temperature profiles were obtained on an Aviv 14DS UV-vis spectrophotometer with a five-cuvette thermoelectric controller. Microcuvettes with two different pathlengths, 0.1 and 0.2 cm (60 and 120 μL volumes, respectively), were employed. Each set of measurements was done in triplicate. The buffer used in each experiment contained 15 mM NaCl, 20 mM sodium cacodylate, and 0.5 mM Na2EDTA (pH 7.0) unless otherwise noted. Each oligomer was dissolved in a specific volume to yield an absorbance reading just below 2.0 in a 0.1 cm pathlength cuvette. The RNA concentrations were determined from the absorbance values (260 nm) at 95° C. The absorbance data were collected at […] from 0 to 95° C. with a constant heating rate of 0.5° C./min. Thermodynamic parameters were obtained from the absorbance versus temperature profiles using the MELTWIN v. 3.5 melting curve program.^1 This program performs a van't Hoff analysis, assuming a two-state model for the transition between a native and a denatured (random coil) structure of a hairpin.
Absorbance versus temperature profiles (melting curves) were obtained at pH 7.0 for all four RNA constructs. They were analyzed in terms of ΔG°37, ΔG°50, ΔH°, ΔS°, and melting temperature (Tm),^1, 2 Representative normalized UV melting curves of the modified RNAs compared to the unmodified RNA, taken in 15 mM NaCl, 20 mM sodium cacodylate, 0.5 mM Na2EDTA (pH 7.0), are shown in FIG. 11.
The curves represent an average of five sets of data at different concentrations of RNA obtained from a five-cuvette thermoelectric controller. The melting curves for the unmodified RNA (ECh31UNMOD, blue line in panels A-C) are compared to those for the modified RNAs (pink lines: (A) ECh31WT, (B) ECh31M2G, and (C) ECh31M5C). All of the melting curves were normalized at 95° C. and absorbance measurements were taken at 260 nm (see materials and methods, section 4.5).
The melting curves are biphasic for all four RNAs (FIG. 12) with transitions at 0 to 35° C. and 40 to 80° C. […] The higher melting transitions were concentration independent, consistent with unimolecular unfolding of the hairpin structure.^3 The corresponding thermodynamic parameters for the four RNAs are given in Table 2. […] The observed order of stability of the RNAs is ECh31UNMOD>ECh31M2G>ECh31M5C>ECh31WT^a A conservative estimate of the standard error for ΔG°50 is 3% (.+−.0.2 kcal/mol)^4
The RNA samples were analyzed as five different dilutions per experiment and UV melts were also performed in triplicate for each construct. AU0-AU4 represent profiles corresponding to different dilutions of each RNA taken in 15 mM NaCl, 20 mM sodium cacodylate, 0.5 mM Na2EDTA at pH 7.0. Experiments in K^+ buffer (15 mM KCl, 20 mM cacodylic acid, 20 mM Tris [basic form], 0.5 mM Na2EDTA, pH 7.0) gave similar results (Table 3, FIG. 13).
Thermal melting studies. Preliminary experiments were performed with the unmodified human analogue (HSh31UNMOD) containing an additional G-C base-pair (denoted by g-c) similar to that of the ECh31UNMOD construct (FIG. 28).
Thermal melting studies on the human unmodified helix 31 containing the altered sequence. The absorbance versus temperature profiles were obtained at pH 7.0 in low salt conditions (35 mM Na^+) for the new analogue of helix 31 (HSh31ECstem) and analyzed in terms of the melting temperature (Tm), Δ°, ΔS° and ΔG°37. The melting curve for HSH31ECSTEM (green color curve) is biphasic with transitions at 0-35 and 45-80° C. (FIG. 37). The higher melting transition is concentration independent, consistent with unimolecular unfolding of a hairpin structure.

[3] = 15 mM NaCl, 20 mM sodium cacodylate, 0.5 mM Na2EDTA, pH 7.0
[4] = Table 2, 15 mM NaCl, 20 mM sodium cacodylate, 0.5 mM Na2EDTA, pH 7.0
[5] = Tables 3-5, NaCl buffer (15 mM NaCl, 20 mM sodium cacodylate, 0.5 mM EDTA, pH 7.0)
[6] = KCl buffer (15 mM KCl, 20 mM cacodylic acid, 20 mM Tris, 0.5 mM Na2EDTA, pH 7.0)

Compound	inhibitory effect on coupled in vitro transcription-translation (in words) [1]	ΔG° 50 [2, 3]	Tm [2, 4] [°C]	ΔG°37 [2, 4] [kcal/mol]	ΔH° [2, 4] [kcal/mol]	ΔS° [2, 4] [cal/K · mol]	Tm [2, 5] [°C]	ΔG°37 [2, 5] [kcal/mol]	ΔH° [2, 5] [kcal/mol]	ΔS° [2, 5] [cal/K · mol]	further results
[H]/N=C(/N)N[C@H]1[C@H](O)[C@@H](O)[C@H](O[C@@H]2O[C@@H](C)[C@](O)(C=O)[C@H]2O[C@@H]2O[C@@H](CO)[C@H](O)[C@@H](O)[C@@H]2NC)[C@@H](N/C(N)=N\[H])[C@@H]1O [Streptomycin, reference compound]	–	–	–	–	–	–	–	–	–	–	GFP translation with positive control ([1]; 300 μM): no GFP translation was observed
CVRPFAL [compound 15, 7-mer peptide selected by phage display against helix 31 RNA]	greater inhibitory effects on in vitro protein synthesis than other peptides	–	–	–	–	–	–	–	–	–	inhibitory effect on coupled in vitro transcription-translation (in words) ([1]; listed as CVRPFAL): best inhibitory effects; also recorded: strong inhibitory effects
DIRTQRE [compound 18, 7-mer peptide selected by phage display against helix 31 RNA]	did not inhibit transcription or translation even up to 2 mM; also recorded: least inhibitory effect	–	–	–	–	–	–	–	–	–	–
ECh31M2G: 18-nt helix 31 RNA hairpin of E. coli 16S rRNA with m2G966 (rGrUrUrCrGrArUr[m2G]rCrArArCrGrCrGrArArC)	–	−0.7^a kcal/mol	56	-2.4 ± 0.1	-41.9 ± 1.1	−127.5 ± 3.2	–	–	–	–	–
ECh31M5C: 18-nt helix 31 RNA hairpin of E. coli 16S rRNA with m5C967 (GUUCGAUGCAACGCGAAC; RNA, [5mC] at 9, all phosphodiester, methylation of C not given here)	–	−0.6^a kcal/mol	55	-2.2 ± 0.1	-40.5 ± 0.9	−123.3 ± 3.1	–	–	–	–	–
ECh31UNMOD: 18-nt unmodified RNA hairpin representing helix 31 (U960-A975) of E. coli 16S rRNA (GUUCGAUGCAACGCGAAC; unmodified RNA)	–	−0.9^a kcal/mol	57	-2.6 ± 0.1	-44.1 ± 1.0	−133.8 ± 3.0	57	-2.6 ± 0.1	-44.1 ± 1.0	−133.8 ± 3.0	–
ECh31WT: doubly modified (m2G966, m5C967) h31 analogue, wild-type sequence of E. coli 16S rRNA helix 31 (GUUCGAUGCAACGCGAAC; RNA, [m2G] at 8, [5mC] at 9, all phosphodiester, methylation of C not given here)	–	−0.5^a kcal/mol	56	-2.1 ± 0.1	-37.5 ± 2.2	−114.4 ± 5.8	55.5	-2.10 ± 0.07	-37.26 ± 1.2	−113.37 ± 3.6	Tm [2, 6]: 54.7 °C; ΔG°37 [2, 6]: -2.13 ± 0.03 kcal/mol; ΔH° [2, 6]: -39.37 ± 1.2 kcal/mol; ΔS° [2, 6]: −120.08 ± 3.8 cal/K · mol
FVRPFAL [compound 16, 7-mer peptide selected by phage display against helix 31 RNA]	best inhibitory effects; also recorded: strong inhibitory effects	–	–	–	–	–	–	–	–	–	–
HSh31UNMOD: unmodified human helix 31 RNA analogue with additional G-C base-pair (GUUUGACUCAACACGGGC; unmodified RNA)	–	–	–	–	–	–	44	-0.6	-29.4 ± 1.6	−92.8 ± 5.4	–
TLWDLIP [compound 14, 7-mer peptide selected by phage display against helix 31 RNA]	greater inhibitory effects on in vitro protein synthesis than other peptides	–	–	–	–	–	–	–	–	–	–
